# Measurements published in US20150315179A1, “COMPOUNDS AND METHODS OF TREATING NEUROLOGICAL DISORDERS” (Torrey Pines Institute For Molecular Studies, priority 2014, published 2015).
# Legend:
# human primary neurons [1] = assay: MTT cytotoxicity, human primary neurons; type: cell-based
# Description: (§1) (4). Toxicity is another crucial limitation for successful drug development as evidenced by recent failure of γ-secretase inhibitors at the clinical trials due to cytotoxicity (Cole, S L and Vassar, R, 2007, Mol. Neurodeg. 2, 22-47; Doody R S, et al. 2013. N. Eng. J. Med. 369, 341-350). Therefore we measured cytotoxicity by very sensitive MTT assay as described previously (Hayes, C D., et al. 2013, BMC Medicine. 26, 11.81; 23; Hayes, C D., et al., 2012, PLoS One 7, e45841) in human primary neurons obtained from a commercial source (cat #1520, ScienCell, Carlsbad, Calif., USA) and fibroblasts derived directly from A D patients (cat# AG06263C, Coriell Institute Cell repository supported by NINDS, NIH). […] We directly used human neurons for toxicity studies so as to reduce the chances of future failure at a later stage due to toxicity.
# TrkA dimer = target: T1, TrkA dimer (Homo sapiens, UniProt P04629); assay: TrkA dimerization immunoblot, NT2 cells; type: cell-based; conditions: 48 h
# T1 construct: endogenous in cells; host or cells: NT2 cells (stably expressing APP751; no TrkA transfection described)
# T1 sequence (P04629 33-796): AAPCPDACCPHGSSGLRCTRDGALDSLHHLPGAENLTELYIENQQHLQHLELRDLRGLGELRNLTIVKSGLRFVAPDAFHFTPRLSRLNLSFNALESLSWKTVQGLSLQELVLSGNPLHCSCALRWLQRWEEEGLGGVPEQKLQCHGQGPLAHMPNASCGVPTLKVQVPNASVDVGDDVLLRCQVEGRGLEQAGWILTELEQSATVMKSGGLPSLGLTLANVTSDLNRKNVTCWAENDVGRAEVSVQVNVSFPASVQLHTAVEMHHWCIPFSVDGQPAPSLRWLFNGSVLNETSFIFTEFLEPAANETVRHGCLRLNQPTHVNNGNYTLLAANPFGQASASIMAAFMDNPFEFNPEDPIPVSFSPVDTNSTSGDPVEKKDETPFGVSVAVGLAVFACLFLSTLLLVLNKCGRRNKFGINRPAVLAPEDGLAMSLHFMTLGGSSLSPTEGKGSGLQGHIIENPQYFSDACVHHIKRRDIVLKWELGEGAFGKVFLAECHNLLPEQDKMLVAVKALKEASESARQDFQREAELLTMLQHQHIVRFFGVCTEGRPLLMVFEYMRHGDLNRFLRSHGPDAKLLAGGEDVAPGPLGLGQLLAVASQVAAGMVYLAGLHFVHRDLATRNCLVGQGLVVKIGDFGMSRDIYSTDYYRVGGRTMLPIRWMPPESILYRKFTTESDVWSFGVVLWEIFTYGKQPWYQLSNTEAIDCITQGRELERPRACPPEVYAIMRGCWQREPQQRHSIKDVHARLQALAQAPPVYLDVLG
# Description: FIGS. 9.4A and B illustrates that THPI-244 increases TrkA dimerization in NT2 cells. FIG. 9.4A illustrates that NT2 cells were treated with THPI-244 at 100 and 200 nM for 48 h and the cell lysates were subjected to immunoblots. TrkA monomer was detected at 140 kDa and dimer at 280 kDA. […] Data are mean±SEM, n=4, **, p<0.01, ***, p<0.001 by ANOVA.
# [2] = tested on: PI3Kα, MAPK, PLC-γ, P75NTR pathways; assay: Signal transduction analysis, NT2 cells; type: cell-based, human
# Description: (2). THPI-244 increases sAPPα by a novel mechanism of upregulating TrkA, a neurotrophic receptor. Therefore, in addition to increasing neuroprotective sAPPα and decreasing toxic Aβ, THPI-244 mediated increased TrkA protein levels are expected to provide neurotrophic support. Following the validation of the effect of THPI-244 in increasing sAPPα levels in CHO cells, NT2 cells, AD fibroblasts and human primary neurons, we were interested in identifying the molecular target of THPI-244 for unraveling the molecular mechanism by which it increases sAPPα which in turn can predict toxicity profile and whether to pursue long-term studies. Increased protein levels of both native and phosphorylated form of TrkA in NT2 cells and mouse brains by THPI-244 validated TrkA as the target.
# human primary neurons [3] = assay: Neurite outgrowth, Sholl analysis of dendritic intersections; type: cell-based; conditions: 2DIV until 6DIV
# Description: (4). The most important property of THPI-244 is its ability to increase neurite outgrowth and dendritic intersections in human primary neurons. Since both TrkA and sAPPα promote neuron growth and provide trophic support, we tested whether treatment of human primary neurons with THPI-244 induces neurite outgrowth. […] Considering an enormous potential for such an excellent results in human neurons, we did systematic analysis by also treating neurons in the presence of TrkA inhibitor to verify if the increased neurite outgrowth is mediated by TrkA receptor. Sholl analysis using ImageJ software of individual neurons (at least 30 per group) immunostained for MAP2 antibody confirmed our initial findings. […] This confirmed that THPI-244 increases TrkA protein levels which has vital role in regulating neuritic outgrowth.
# [4] = tested on: sAPPα release, fibroblasts derived from AD patients; assay: sAPPα ELISA, AD fibroblasts; type: cell-based, human; conditions: 24 h
# Description: (§2) (1). […] Therefore, we first used fibroblasts derived from AD patients (AG06263C, Coriell Cell repository, supported by NINDS/NIH) and exposed to THPI-244 for 24 h and measured sAPPα release by ELISA as done above for NT2 cells. […] We also confirmed dose-dependent effect of THPI-244 on sAPPα levels in human primary neurons transiently transfected with APP751 with Swedish mutation which is trafficked differently from WT APP and releases more sAPPα. Human neurons were grown on specially coated glass coverslips (cat # GG-18-PDL, NeuVitro, Germany). We could reproducibly achieve nearly 30% transfection efficiency using a nanoparticle based transfection reagent called Neuromag (cat # NM150299, OZ Biosciences, France).
# TrkA protein levels = assay: TrkA protein immunoblot, NT2 cells with or without PKC inhibitor; type: cell-based, human
# Description: (3). THPI-244 increases TrkA receptor levels independent of protein kinase C (PKC). Next to clarify whether increased sAPPα levels depends on increased TrkA activation, NT2 cells were treated with THPI-244 with or without TrkA inhibitor (cat # GW 441756, Tocris Bioscience) at 50 nM final concentration. After 24 h, sAPPα levels were quantified from the conditioned medium by immunoblots. […] We next wanted to address whether increased TrkA protein levels by THPI-244 depends on PKC since PKC activators are well-known to induce sAPPα secretion (Etcheberringaray, R., et al., 2004, PNAS, 101, 11141-11146). NT2 cells were similarly treated with THPI-244 at 100 nM with or without PKC inhibitor (GF 109203, cat #0741, Tocris Bioscience) at 1.0 nM and TrkA protein levels were quantified by immunoblots as shown in FIG. 1.10 (right). […] Thus increased sAPPα level by THPI-244 is through upregulation of TrkA receptor independent of PKC.
# [5] = tested on: sAPPα levels, human primary neurons transiently transfected with APP751 with Swedish mutation; assay: sAPPα ELISA, human primary neurons transfected with APP751; type: cell-based
# Description: as §2
# BBB of THPI-244 analogs = assay: BBB of THPI-244 analogs
# Description: The following table illustrates Chemical structures and properties of THPI-244 analogs selected out of 37 analogs, and each have significant sAPPα increasing activity. Toxicity is the minimum dose for toxicity.
# [6] = tested on: fibroblasts derived from AD patients; assay: MTT cytotoxicity, AD fibroblasts; type: cell-based, human; conditions: 24 h exposure
# Description: as §1
structure (smiles),measurement,setting,value
O=C(Cc1ccccc1)N[C@H](CNc1nc(CN2CCN(C(=O)Cc3ccccc3)CC2)cs1)c1ccccc1 [THPI-244],concentration from which cytotoxicity is significant,"human primary neurons [1]; MTT, 24 h exposure, human primary neurons",40 µM
same,therapeutic window,human primary neurons [1]; human primary neurons and AD fibroblasts,800
same,increase of TrkA dimer,TrkA dimer; 100 nM,82%
same,increase of TrkA dimer,TrkA dimer; 200 nM,134%
same,MAPK or PLC-γ pathways,[2],not
same,PI3Kα pathway,[2],activation
same,number of dendritic intersections,human primary neurons [3]; Sholl analysis,highly significant increase
same,number of dendritic intersections,human primary neurons [3]; THPI-244 with TrkA inhibitor,almost completely prevented the increased intersections
same,concentration from which sAPPα increase is significant,[4],50 nM
same,TrkA protein levels,TrkA protein levels; THPI-244 100 nM,197%
same,TrkA protein levels,TrkA protein levels; THPI-244 100 nM with PKC inhibitor GF 109203 1.0 nM,192%
same,increase of sAPPα levels,[5]; 50 nM,171%
same,increase of sAPPα levels,[5]; 2000 nM,301%
same,% BBB,BBB of THPI-244 analogs,0.1%
same,concentration from which cytotoxicity is significant,[6],50 µM
